Results as given in publication PMC11361989, “A simple HPLC–MS/MS method for the determination of polymyxin B in human plasma and its application in the pharmacokinetic study in elderly patients infected with multidrug-resistant Gram-negative bacteria” (Frontiers in Pharmacology, 2024).
Like-named read-outs stand apart in the source and are kept apart here.

What was measured:
[1] = Stability of working solutions of PB1 and PB2; assay type: physicochemical
Experimental: All the above solutions were stored at −70°C.

[2] = Stability of PB1 and PB2 in human whole blood at room temperature or 4°C; settings: clinical TDM whole blood, plasma by HPLC-MS/MS
[3] = Stability of PB1 and PB2 in human plasma under different storage conditions; settings: human plasma, n = 3

For polymyxin B1 [PB1], the “Stability of working solutions” value ([1]; working solutions in 1% aqueous formic acid at LQC and HQC concentrations, stored at −70°C) was “remained stable after storage at −70 °C for up to 7 days but not beyond 10 days”, the “Concentration after storage in human blood” value (“Concentration after storage” for short) ([2]; 4°C, 0 h (initial), parallel sample 1) was 4690 ng/mL and the “Concentration after storage” value ([2]; 4°C, 0 h (initial), parallel sample 2) was 4720 ng/mL. The “Concentration after storage” value ([2]; 4°C, 0.5 h, parallel sample 1) was 4290 ng/mL, the “Concentration after storage” value ([2]; 4°C, 0.5 h, parallel sample 2) was 4120 ng/mL and the “Concentration after storage” value ([2]; 4°C, 1 h, parallel sample 1) was 4420 ng/mL. The “Concentration after storage” value ([2]; 4°C, 1 h, parallel sample 2) was 4350 ng/mL, the “Concentration after storage” value ([2]; 4°C, 2 h, parallel sample 1) was 5100 ng/mL and the “Concentration after storage” value ([2]; 4°C, 2 h, parallel sample 2) was 4890 ng/mL. The “Concentration after storage” value ([2]; 4°C, 3 h, parallel sample 1) was 5250 ng/mL, the “Concentration after storage” value ([2]; 4°C, 3 h, parallel sample 2) was 5320 ng/mL and the “Concentration after storage” value ([2]; 4°C, 4 h, parallel sample 1) was 5130 ng/mL. For the same substance, the “Concentration after storage” value ([2]; 4°C, 4 h, parallel sample 2) was 4950 ng/mL, the “Concentration after storage” value ([2]; 4°C, 5 h, parallel sample 1) was 4820 ng/mL and the “Concentration after storage” value ([2]; 4°C, 5 h, parallel sample 2) was 4820 ng/mL. The “Concentration after storage” value ([2]; 4°C, 8 h, parallel sample 1) was 4460 ng/mL, the “Concentration after storage” value ([2]; 4°C, 8 h, parallel sample 2) was 4850 ng/mL and the “Concentration after storage” value ([2]; 4°C, 12 h, parallel sample 1) was 4560 ng/mL. The “Concentration after storage” value ([2]; 4°C, 12 h, parallel sample 2) was 4680 ng/mL, the “Concentration after storage” value ([2]; 4°C, 24 h, parallel sample 1) was 4690 ng/mL and the “Concentration after storage” value ([2]; 4°C, 24 h, parallel sample 2) was 5280 ng/mL. For the same substance, the “Concentration after storage” value ([2]; room temperature (25°C), 0 h (initial), parallel sample 1) was 6890 ng/mL, the “Concentration after storage” value ([2]; room temperature (25°C), 0 h (initial), parallel sample 2) was 6660 ng/mL and the “Concentration after storage” value ([2]; room temperature (25°C), 0.5 h, parallel sample 1) was 6830 ng/mL. The “Concentration after storage” value ([2]; room temperature (25°C), 0.5 h, parallel sample 2) was 6630 ng/mL, the “Concentration after storage” value ([2]; room temperature (25°C), 1 h, parallel sample 1) was 6130 ng/mL and the “Concentration after storage” value ([2]; room temperature (25°C), 1 h, parallel sample 2) was 6130 ng/mL. For the same substance, the “Concentration after storage” value ([2]; room temperature (25°C), 2 h, parallel sample 1) was 6700 ng/mL, the “Concentration after storage” value ([2]; room temperature (25°C), 2 h, parallel sample 2) was 6150 ng/mL and the “Concentration after storage” value ([2]; room temperature (25°C), 3 h, parallel sample 1) was 7160 ng/mL. The “Concentration after storage” value ([2]; room temperature (25°C), 3 h, parallel sample 2) was 6780 ng/mL, the “Concentration after storage” value ([2]; room temperature (25°C), 4 h, parallel sample 1) was 6420 ng/mL and the “Concentration after storage” value ([2]; room temperature (25°C), 4 h, parallel sample 2) was 6420 ng/mL. For the same substance, the “Concentration after storage” value ([2]; room temperature (25°C), 5 h, parallel sample 1) was 6890 ng/mL, the “Concentration after storage” value ([2]; room temperature (25°C), 5 h, parallel sample 2) was 6710 ng/mL and the “Concentration after storage” value ([2]; room temperature (25°C), 8 h, parallel sample 1) was 6970 ng/mL. For the same substance, the “Concentration after storage” value ([2]; room temperature (25°C), 8 h, parallel sample 2) was 6650 ng/mL, the “Concentration after storage” value ([2]; room temperature (25°C), 12 h, parallel sample 1) was 7950 ng/mL and the “Concentration after storage” value ([2]; room temperature (25°C), 12 h, parallel sample 2) was 8190 ng/mL. For the same substance, the “Concentration after storage” value ([2]; room temperature (25°C), 24 h, parallel sample 1) was 7050 ng/mL, the “Concentration after storage” value ([2]; room temperature (25°C), 24 h, parallel sample 2) was 6720 ng/mL and the “Stability in human plasma, RE” value ([3]; 4°C for 24 h, target PB1 2.00 / PB2 0.20 μg/mL (LQC)) was “+3.25%”. The “Stability in human plasma, RE” value ([3]; 4°C for 24 h, target PB1 9.01 / PB2 0.92 μg/mL (MQC)) was −7.38%, the “Stability in human plasma, RE” value ([3]; 4°C for 24 h, target PB1 18.02 / PB2 1.84 μg/mL (HQC)) was −3.87% and the “Stability in human plasma, RE” value ([3]; room temp. for 24 h, target PB1 2.00 / PB2 0.20 μg/mL (LQC)) was −11.99%. The “Stability in human plasma, RE” value ([3]; room temp. for 24 h, target PB1 9.01 / PB2 0.92 μg/mL (MQC)) was “+5.18%”, the “Stability in human plasma, RE” value ([3]; room temp. for 24 h, target PB1 18.02 / PB2 1.84 μg/mL (HQC)) was “+6.19%” and the “Stability in human plasma, RE” value ([3]; three freeze–thaw cycles, target PB1 2.00 / PB2 0.20 μg/mL (LQC)) was −4.15%. For the same substance, the “Stability in human plasma, RE” value ([3]; three freeze–thaw cycles, target PB1 9.01 / PB2 0.92 μg/mL (MQC)) was “+3.09%”, the “Stability in human plasma, RE” value ([3]; three freeze–thaw cycles, target PB1 18.02 / PB2 1.84 μg/mL (HQC)) was “+1.01%” and the “Stability in human plasma, RE” value ([3]; −70°C for 85 days, target PB1 2.00 / PB2 0.20 μg/mL (LQC)) was −2.50%. For the same substance, the “Stability in human plasma, RE” value ([3]; −70°C for 85 days, target PB1 9.01 / PB2 0.92 μg/mL (MQC)) was “+0.10%” and the “Stability in human plasma, RE” value ([3]; −70°C for 85 days, target PB1 18.02 / PB2 1.84 μg/mL (HQC)) was “+1.95%”.
With polymyxin B2 [PB2] the “Stability of working solutions” value [1] was “remained stable after storage at −70 °C for up to 7 days but not beyond 10 days”.
